Patent US4594421A, “Imidazopyridine compounds” (priority 1984, dated 1986)
Like-named read-outs stand apart in the source and are kept apart here.

What was measured:
[1] = system: phrenic-diaphragm preparation; test: Neuromuscular blocking activity in vitro, phrenic-diaphragm preparation; parameters: species or system male Sprague-Dawley rats; details: rat phrenic-diaphragm, 37° C., cumulative concentrations, read-out: EC50 (effective concentration able to reduce the muscular contraction of 50%)
Experimental: (§1) The neuromuscular blocking activity has been evaluated:
in vitro, using the phrenic-diaphragm preparation according to the method described by Bulbring E. (Brit. J. Pharmac. Chemother. 1, 38, 1946). The preparation, taken from male Sprague-Dawley rats weighing 200-250 g, was placed into a bath for isolated organs, thermostatically kept at 37° C. and containing a nutritional liquid oxygenated with […] carboxygen. The phrenic nerve was stimulated by means of square wave impulses (12 per min., duration 0.5 msec., overmaximal voltage). […] The dose-effect curve, determined for each of them, allowed to calculate the EC50 or effective concentration able to reduce the muscular contraction of 50% (Table 1);

[2] = system: sciatic-gastrocnemious preparation; test: Neuromuscular blocking activity in vivo, sciatic-gastrocnemious preparation; parameters: species or system male Sprague-Dawley rats; details: for ED50: iv, read-out: ED50 (effective dose causing the 50% reduction of muscular contraction)
Experimental: as §1
(§2) in vivo, using the sciatic-gastrocnemious preparation, substantially following the method described by Hughes R. (Br. J. Anaesth. 44, 27, 1972). Male Sprague-Dawley rats weighing 200-250 g, anaesthetized (urethane 1,2 g/kg i.p.) and submitted to forced ventilation, were treated. The sciatic nerve was stimulated at a rate of 6 impulses per min. by means of square waves and overmaximal voltage with a duration of 0.5 msec. The left carotid artery was incannulated for the continuous registration of arterial blood pressure and heart rate.
(§3) The compounds to be tested were administered by i.v. route at increasing doses, given at intervals of at least 30 min. from one to another and, in any case, after the effect of previous administration had completely exhausted.
(§4) In addition, the time of latence (the interval between the administration and the maximal effect) and that of complete recovery have been determined.

[3] = system: arterial blood pressure and heart rate; test: Cardiovascular effects (arterial blood pressure and heart rate) in vivo; parameters: species or system male Sprague-Dawley rats; details: rat, i.v.; for Arterial blood pressure Δ % / Heart rate Δ %: at ED50 on muscular contraction
Experimental: as §2, §3, §4

[4] = Acute toxicity (LD50) in rat; parameters: species or system male Sprague-Dawley rats; details: in vivo, iv, Litchfield and Wilcoxon
Experimental: The LD50 were then calculated according to the method of Litchfield J. T. and Wilcoxon F. J. (J. Pharmac. Exp. Ther., 95, 99, 1949).

[5] = system: skeletal neuromuscular junction; details: known compound of the commerce; cited from earlier work
[6] = rat, i.v., anaesthetized (urethane)

SMILES: Cc1c(-c2ccccc2)n(CCCCn2c(-c3ccccc3)c(C)[n+]3ccccc23)c2cccc[n+]12 [Example 4, 1,1'-(1,4-Tetramethylene)bis(2-phenyl-3-methyl)imidazo[1,2-a]pyridinium perchlorate]
- EC50 [1]: 28.7 µM
- ED50 [2, 6]: 5 µg/kg
- Latence (interval between the administration and the maximal effect) ([2]; rat, i.v.): 1.3 min
- Recovery (time of complete recovery) ([2]; rat, i.v.): 6.2 min
- Arterial blood pressure Δ % [3]: -28%
- Heart rate Δ % [3]: +1%
- LD50 [4]: 4.3 µmol/kg

SMILES: Brc1ccc(-c2c[n+]3ccccc3n2CCCCCCn2c(-c3ccc(Br)cc3)c[n+]3ccccc23)cc1 [Example 7, 1,1'-(1,6-Hexamethylene)bis[2-(4-bromophenyl)]imidazo[1,2-a]pyridinium bromide]
- EC50 [1]: 15.4 µM
- ED50 [2, 6]: 3 µg/kg
- Latence (interval between the administration and the maximal effect) ([2]; rat, i.v.): 1.5 min
- Recovery (time of complete recovery) ([2]; rat, i.v.): 9.8 min
- Arterial blood pressure Δ % [3]: -50%
- Heart rate Δ % [3]: -8%
- LD50 [4]: 6 µmol/kg

SMILES: COc1ccc(-c2c[n+]3ccccc3n2CCCCCCn2c(-c3ccc(OC)cc3)c[n+]3ccccc23)cc1 [Example 5, 1,1'-(1,6-Hexamethylene)bis[2-(4'-methoxy)phenyl]imidazo[1,2-a]pyridinium bromide monohydrate]
- EC50 [1]: 14.7 µM
- ED50 [2, 6]: 1.9 µg/kg
- Latence (interval between the administration and the maximal effect) ([2]; rat, i.v.): 1.5 min
- Recovery (time of complete recovery) ([2]; rat, i.v.): 6.4 min
- Arterial blood pressure Δ % [3]: -39%
- Heart rate Δ % [3]: +26%
- LD50 [4]: 2.6 µmol/kg

SMILES: c1ccc(-c2c[n+]3ccccc3n2CCCCCCCCn2c(-c3ccccc3)c[n+]3ccccc23)cc1 [Example 2, 1,1'-(1,8-Octamethylene)bis-2-phenylimidazo[1,2-a]piridinium perchlorate]
- EC50 [1]: 11.9 µM
- ED50 [2, 6]: 1.9 µg/kg
- Latence (interval between the administration and the maximal effect) ([2]; rat, i.v.): 2.2 min
- Recovery (time of complete recovery) ([2]; rat, i.v.): 9.2 min
- Arterial blood pressure Δ % [3]: -45%
- Heart rate Δ % [3]: +22%
- LD50 [4]: 2.7 µmol/kg

SMILES: Cc1c(-c2ccccc2)n(CCCCCCn2c(-c3ccccc3)c(C)[n+]3ccccc23)c2cccc[n+]12 [Example 8, 1,1'-(1,6-Hexamethylene)bis(2-phenyl-3-methyl)imidazo[1,2-a]pyridinium perchlorate]
- EC50 [1]: 13.6 µM
- ED50 [2, 6]: 1.3 µg/kg
- Latence (interval between the administration and the maximal effect) ([2]; rat, i.v.): 2.1 min
- Recovery (time of complete recovery) ([2]; rat, i.v.): 7.7 min
- Arterial blood pressure Δ % [3]: -40%
- Heart rate Δ % [3]: +68%
- LD50 [4]: 2 µmol/kg

SMILES: Fc1ccc(-c2c[n+]3ccccc3n2CCCCCCn2c(-c3ccc(F)cc3)c[n+]3ccccc23)cc1 [Example 1, 1,1'-(1,6-Hexamethylene)bis[2-(4'-fluoro)phenyl]imidazo[1,2-a]pyridinium perchlorate]
- EC50 [1]: 15 µM
- ED50 [2, 6]: 3 µg/kg
- Latence (interval between the administration and the maximal effect) ([2]; rat, i.v.): 2.2 min
- Recovery (time of complete recovery) ([2]; rat, i.v.): 7.9 min
- Arterial blood pressure Δ % [3]: -37%
- Heart rate Δ % [3]: +28%
- LD50 [4]: 3.9 µmol/kg

SMILES: c1ccc(-c2c[n+]3ccccc3n2CCn2c(-c3ccccc3)c[n+]3ccccc23)cc1 [Example 10, 1,1'-(1,2-Ethylene)bis-2-phenylimidazo[1,2-a]pyridinium perchlorate]
- EC50 [1]: 31.4 µM
- ED50 [2, 6]: 4 µg/kg
- Latence (interval between the administration and the maximal effect) ([2]; rat, i.v.): 2.8 min
- Recovery (time of complete recovery) ([2]; rat, i.v.): 14.0 min
- Arterial blood pressure Δ % [3]: -30%
- Heart rate Δ % [3]: +28%
- LD50 [4]: 8.8 µmol/kg

SMILES: Cc1c(-c2ccccc2)n(CCn2c(-c3ccccc3)c(C)[n+]3ccccc23)c2cccc[n+]12 [Example 12, 1,1'-(1,2-Ethylene)bis(2-phenyl-3-methyl)imidazo[1,2-a]pyridinium perchlorate]
- EC50 [1]: 115 µM
- ED50 ([2]; Rattus norvegicus): 5.6 µg/kg
- Latence (interval between the administration and the maximal effect) ([2]; rat, i.v.): 2.6 min
- Recovery (time of complete recovery) ([2]; rat, i.v.): 12.2 min
- Arterial blood pressure Δ % [3]: -5%
- Heart rate Δ % [3]: +6%
- Arterial blood pressure Δ % at minimal active dose ([3]; at minimal active dose on muscular contraction): -24%
- LD50 [4]: 9.7 µmol/kg

SMILES: Cc1c(-c2ccccc2)n(/N=N/n2c(-c3ccccc3)c(C)[n+]3ccccc23)c2cccc[n+]12 [Fazadinium bromide, 1,1-azabis 3-methyl-2-phenylimidazo 1,2-a pyridinium bromide, reference compound]
- EC50 [1]: 13.9 µM
- ED50 [2, 6]: 1 µg/kg
- Latence (interval between the administration and the maximal effect) ([2]; rat, i.v.): 1.5 min
- Recovery (time of complete recovery) ([2]; rat, i.v.): 6.6 min
- activity in vivo ([2]; rat, i.v.): active
- Arterial blood pressure Δ % [3]: -16%
- Heart rate Δ % [3]: +30%
- LD50 [4]: 1.5 µmol/kg
- known activity of the standard [5]: competitive skeletal muscle paralysing activity

SMILES: c1ccc(-c2c[n+]3ccccc3n2CCCCCCn2c(-c3ccccc3)c[n+]3ccccc23)cc1 [Example 11, 1,1'-(1,6-Hexamethylene)bis-2-phenylimidazo[1,2-a]pyridinium perchlorate]
- EC50 [1]: 12.9 µM
- ED50 [2, 6]: 2.1 µg/kg
- Latence (interval between the administration and the maximal effect) ([2]; rat, i.v.): 2.3 min
- Recovery (time of complete recovery) ([2]; rat, i.v.): 8.8 min
- Arterial blood pressure Δ % [3]: -40%
- Heart rate Δ % [3]: +42%
- LD50 [4]: 3.1 µmol/kg

SMILES: c1ccc(-c2c[n+]3ccccc3n2CCCCn2c(-c3ccccc3)c[n+]3ccccc23)cc1 [Example 9, 1,1'-(1,4-Tetramethylene)bis-2-phenylimidazo[1,2-a]pyridinium perchlorate]
- EC50 [1]: 28.9 µM
- ED50 [2, 6]: 3.3 µg/kg
- Latence (interval between the administration and the maximal effect) ([2]; rat, i.v.): 2.1 min
- Recovery (time of complete recovery) ([2]; rat, i.v.): 7.0 min
- Arterial blood pressure Δ % [3]: -31%
- Heart rate Δ % [3]: +25%
- LD50 [4]: 3.2 µmol/kg

SMILES: Cc1c(-c2ccccc2)n(CCCCCCCCn2c(-c3ccccc3)c(C)[n+]3ccccc23)c2cccc[n+]12 [Example 3, 1,1'-(1,8-Octamethylene)bis(2-phenyl-3-methyl)imiadazo[1,2-a]pyridinium perchlorate]
- EC50 [1]: 14.3 µM
- ED50 [2, 6]: 1.6 µg/kg
- Latence (interval between the administration and the maximal effect) ([2]; rat, i.v.): 1.2 min
- Recovery (time of complete recovery) ([2]; rat, i.v.): 5.0 min
- Arterial blood pressure Δ % [3]: -28%
- Heart rate Δ % [3]: +40%
- LD50 [4]: 2 µmol/kg
